# How the values were obtained:
# Type in all cases: cell-based
# [1] = system: MMP-1 expression in human neonatal dermal fibroblast cells; assay: Active MMP-1 in neonatal-derived human dermal fibroblasts after chronic dexamethasone and PMA; settings: for Suppression of MMP-1 synthesis and secretion vs control, untreated cells: chronic 1 μM dexamethasone 5 days then 1 μM PMA, neonatal fibroblasts
# Experimental: (§1) In this study, to understand better the effect of chronic stress on dermal matrix remodelling in the skin, we have therefore measured changes in markers of dermal matrix degradation (MMP-1) and dermal matrix synthesis (Procollagen I) in chronically glucocorticoid-treated primary human dermal fibroblasts, following acute stress with PMA. The experimental approach is similar to that described in example 1 except that the cells tested are dermal fibroblasts and cells are assayed for expression of procollagen-1, MMP-1 and MMP-9 expression.
# (§2) Primary human dermal fibroblast cells were cultured and passaged in DMEM (Gibco) supplemented with 10% FBS (foetal bovine serum). Cells were routinely plated out in 6-well tissue culture dishes, at a seeding density of ˜5000 cells/cm^2 in 2 ml complete medium/well for 24 hours, and incubated at 37° C. in 5% CO2. Media was removed and cells grown in DMEM & 1% FBS, 24 hours prior to treatments.
# (§3) Pre-treatment and test solutions were prepared in DMEM containing low serum (1% FBS). […] Following this, the cells were oxidatively stressed for 24 hours with 1 μM PMA (Sigma P8139).
# MMP-1 and MMP-9 protein in each cell supernatant was estimated using the Human active MMP-1 and MMP-9 Fluorokine enzyme kit (R&D Systems F1M00 and F9M00, respectively), according to the manufacturer's instructions.
# Six MMP-1 and MMP-9 standards were prepared in calibrator diluent at concentrations ranging from 0.39 to 12.5 ng/ml and 0.25 to 16 ng/ml, respectively. 100 μl of assay diluent and 150 μl of tissue culture supernatant or standard was added to duplicate wells. The plate was incubated at room temperature for 3 hours on a horizontal orbital plate shaker before being washed four times with wash buffer. 200 μl of APMA was added to each well and the plate incubated at 37° C. for 2 hours in a humidified environment and protected from the light. The plate was washed as before. Each well received 200 μl of substrate solution and the plate incubated at 37° C. for 17-20 hours in a humidified environment and protected from the light. The relative fluorescence unit (RFU) of each well was determined using a fluorescence plate set with 1×20 mS integration time, plate speed ˜6; excitation wavelength set to 320 nm and emission wavelength set to 405 nm.
# A standard curve was plotted of mean RFU versus MMP-1 and MMP-9 concentration (respectively), and the line of best fit calculated by regression analysis. The unknown concentration of either active MMP-1 or MMP-9 protein in all of the samples was estimated from this.
# (§4) The same methods were used as described in Example 2, except that various test agents were added to the cells during the pre-treatment period.
# [2] = system: IL-6 expression by Human Umbilical Vein Endothelial Cells; assay: IL-6 ELISA of HUVEC tissue culture supernatant; settings: without PMA
# Experimental: An in vitro model has been developed to investigate the impact of chronic stress on the inflammatory status of endothelial cells. • a. Cells are grown in 6-well (9.5 cm^2) plates. • b. […] Tissue culture supernatant and cell pellets are harvested at timepoint T0. • d. The cells are oxidatively stressed with 1 μM Phorbol Myristate Acetate (PMA). • e. Tissue culture supernatant and cell pellets were harvested at 6, 24 and 48 hours (T6, T24 and T48, respectively) post-PMA treatment. • f. All tissue culture supernatant was assayed for Lactate Dehydrogenase (LDH), as a measure of cytotoxicity, and Interleukin-6 synthesis. • g. All cells were counted (Beckman Coulter Counter) and pelleted and cell lysate assayed for ICAM-1 expression (Intra Cellular Adhesion Molecule 1).
# [3] = system: IL-6 expression in neonatal-derived human dermal fibroblasts; assay: IL-6 in neonatal-derived human dermal fibroblasts after chronic dexamethasone and PMA; settings: GC-treated neonatal fibroblasts after PMA; T6 and T24; data not shown
# Experimental: The IL-6 protein concentration of each tissue culture supernatant was assayed using the QuantiGlo Q6000 Human IL-6 assay (R&D Systems) according to the manufacturer's instructions.
# Six IL-6 standards were prepared in calibrator diluent at concentrations ranging from 0 to 3000 pg/ml. 50 μl of assay diluent and 150 μl of tissue culture supernatant or standard was added to duplicate wells. The plate was incubated at room temperature for 2 hours on a horizontal orbital plate shaker before being washed four times with wash buffer. 200 μl of IL-6 conjugate was added to each well and the plate incubated at room temperature for 3 hours on a horizontal orbital plate shaker (˜500 rpm). The plate was washed as before. […] The relative light unit (RLU) of each well was determined using a luminometer set with 1 minute lag time, 1 second/well read time, summation mode and automatic gain on.
# A standard curve was plotted of mean RLU versus IL-6 concentration and the line of best fit calculated by regression analysis. […]
# In this study, to understand better the effect of chronic stress on dermal matrix remodelling in the skin, we have therefore measured changes in markers of dermal matrix degradation (MMP-1) and dermal matrix synthesis (Procollagen I) in chronically glucocorticoid-treated primary human dermal fibroblasts, following acute stress with PMA. […]
# [4] = system: procollagen-1 expression in human neonatal dermal fibroblast cells; assay: Procollagen I C-peptide EIA in neonatal-derived human dermal fibroblasts after chronic dexamethasone and PMA; settings: chronic dexamethasone then 1 μM PMA; T6; neonatal fibroblasts; FIG. 8
# Experimental: as §1, §2, §3
# Collagen I is synthesised as a precursor molecule, Procollagen I. The amount of free propeptide therefore, reflects stoichiometrically, the amount of collagen I synthesised. The Procollagen Type I C-peptide Enzyme Immunoassay (EIA) kit allows for the quantitative determination of Procollagen Type I C-peptide (PIP).
# Eight PIP standards were prepared in sample diluent at concentrations ranging from 0 to 640 ng/ml. 100 μl of antibody-Peroxidase conjugate solution and 20 μl of cell lysate (1 μg protein) or standard was added to duplicate wells. The plate was sealed and incubated at 37° C. for 3 hours before being washed four times with 400 μl of PBS. Each well then received 100 μl of substrate solution and the plate incubated at room temperature, on the benchtop, for 15 minutes. After this period, 100 μl stop solution was added to each well and absorbance measured at 450 nm with a plate reader.
# A standard curve was plotted of mean absorbance versus PIP concentration and the line of best fit calculated by regression analysis. The unknown concentration of PIP in all the samples was estimated from this.
# as §4
smiles,measurement,setting,value
C[C@@H]1C[C@H]2[C@@H]3CCC4=CC(=O)C=C[C@]4(C)[C@@]3(F)[C@@H](O)C[C@]2(C)[C@@]1(O)C(=O)CO [Dexamethasone],Level of active MMP-1,[1]; GC-treated neonate fibroblasts,15 ng/mL
same,"Suppression of MMP-1 synthesis and secretion vs control, untreated cells",[1]; T6,~60%
same,"Suppression of MMP-1 synthesis and secretion vs control, untreated cells",[1]; T24,80%
same,"Suppression of MMP-1 synthesis and secretion vs control, untreated cells",[1]; T48,70%
same,IL-6 secretion with glucocorticoid alone,[2],did not cause increased secretion of IL-6
same,Reduction in Interleukin-6 synthesis vs vehicle treated cells,[3],~80%
same,"Inhibition of Procollagen-1 synthesis vs control, untreated cells",[4],~50%
